Test results published in the supplement of paper PMC12533247.

What was measured:
[1] = test system: primary dermal fibroblasts; assay: % change in live cells vs DMSO control; higher = less cytotoxic; conditions: time (h post treatment): 48
Experimental: (§1)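 Cytotoxicity in uninfected 2D primary donor keratinocytes (20 h post treatment) and fibroblasts (48 h post treatment), measured with NucSpot live/dead dyes on IncuCyte. Live cells are normalised to the 0.2% DMSO control and shown as % change. Three biological replicates for each of donors 3, 4 and 5.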

primary keratinocytes = assay: as above; conditions: time (h post treatment): 20
Experimental: as §1

[2] = test system: HSV-1 K26-GFP infected primary human skin cells; assay: % change of HSV-1 GFP signal vs untreated infected cells; higher = less antiviral inhibition
Experimental: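 2D primary donor-derived keratinocytes (read at 20 hpi) and donor-matched dermal fibroblasts (read at 48 hpi) infected with GFP-HSV-1 K26 at MOI 1 and treated 1 h later with compound dilutions. IncuCyte GFP integrated intensity is normalised by subtracting mock-infected wells and dividing by untreated infected wells, shown as % change (-100 = full inhibition).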

[3] = test system: HSV-1 K26-GFP infected 3D skin equivalent; assay: % change of tdTomato fibroblast signal relative to infected DMSO control; higher = higher signal (negative = inhibition / toxicity); conditions: time (h post infection): 48
Experimental: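 Triplicate dose-response (0.04 to 10 uM) of 11 top compounds in 3D bioprinted skin equivalents (submerged and ALI models) infected with GFP-HSV-1 K26 at MOI 0.1 and fixed at 48 hpi. GFP (virus) and tdTomato (fibroblast viability) signals are normalised to per-plate controls.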

CC1(C)CC(=O)c2c(C(F)(F)F)nn(-c3ccc(C(N)=O)c(N[C@H]4CC[C@H](O)CC4)c3)c2C1 [SNX-2112]
Conditions	% change in live cells, donor: 3 [%]	% change in live cells, donor: 4 [%]	% change in live cells, donor: 5 [%]	% change of tdTomato fibroblast signal, model: ALI [%]	% change of tdTomato fibroblast signal, model: submerged [%]
[1], 0.082305 µM	-17.7	14.3	9	–	–
[1], 0.246914 µM	-20.7	4.67	-1.67	–	–
[1], 0.740741 µM	-23	0.333	-1.67	–	–
[1], 2.22222 µM	-22.3	0.667	-8.67	–	–
[1], 6.66667 µM	-22.7	6.33	-10.3	–	–
[1], 20 µM	-22.7	7.33	-13.7	–	–
[1], 60 µM	-21	1	-32.3	–	–
[3], 0.041152 µM	–	–	–	0.975	-4.63
[3], 0.123457 µM	–	–	–	-7.26	-2.18
[3], 0.37037 µM	–	–	–	-17.9	-23.3
[3], 1.111111 µM	–	–	–	-33.5	-52.2
[3], 3.33333 µM	–	–	–	-36.3	-55
[3], 10 µM	–	–	–	-32.3	-50.9
primary keratinocytes, 0.082305 µM	-14.3	4.33	-22	–	–
primary keratinocytes, 0.246914 µM	-38.3	-29	-60.7	–	–
primary keratinocytes, 0.740741 µM	-40.3	-53.3	-72.3	–	–
primary keratinocytes, 2.22222 µM	-43.7	-58.7	-77	–	–
primary keratinocytes, 6.66667 µM	-49	-70	-79	–	–
primary keratinocytes, 20 µM	-59.3	-74	-76.7	–	–
primary keratinocytes, 60 µM	-79.3	-74	-57.7	–	–

% change of HSV-1 GFP signal [%], [2]
Conditions	0.001 µM	0.003 µM	0.0091 µM	0.0274 µM	0.0823 µM	0.2469 µM	0.7407 µM	2.2222 µM	6.6667 µM	20 µM
cell type: primary dermal fibroblasts, donor: 5, time (h post infection): 48	–	-7.73	-15.6	-26.2	-67.5	-95.5	-98.7	-98.8	-99.29	-98.8
cell type: primary keratinocytes, donor: 3, time (h post infection): 20	9.13	13.4	18.9	18.3	-27.7	-93.6	-99.06	-99.56	-99.47	-99.7
cell type: primary keratinocytes, donor: 4, time (h post infection): 20	9.33	1.99	-3	-5.23	-58	-98.23	-99.906	-100.1	-100.02	-100
cell type: primary keratinocytes, donor: 5, time (h post infection): 20	8.24	-1.8	-0.244	-15.1	-81.52	-98.96	-99.957	-99.916	-99.948	-99.936
